Measured values from patent US5317039A, “Cyclopropyl-alanine aryl/alkylsulfide/sulfonyl-terminated amino-diol compounds for treatment of hypertension” (G. D. Searle & Co., priority 1992, dated 1994).
pIC50: −log10 of the molar value. Square brackets hold non-standard residues; d marks the D form. Peptide text beside a SMILES is read from it. * marks the point of attachment. Sta = CC(C)C[C@H](N)[C@@H](O)CC(=O)O; Isovaleryl = CC(C)CC(=O)*

Tests used:
human renin = target: T1, human renin (Homo sapiens, UniProt P00797); assay: Human Renin Inhibition in vitro; type: biochemical; conditions: pH 7.4, 2 h at 37° C., human plasma, angiotensin I by radioimmunoassay
T1 construct: purchased National Institute for Biological Standards, London
T1 sequence (P00797 67-406): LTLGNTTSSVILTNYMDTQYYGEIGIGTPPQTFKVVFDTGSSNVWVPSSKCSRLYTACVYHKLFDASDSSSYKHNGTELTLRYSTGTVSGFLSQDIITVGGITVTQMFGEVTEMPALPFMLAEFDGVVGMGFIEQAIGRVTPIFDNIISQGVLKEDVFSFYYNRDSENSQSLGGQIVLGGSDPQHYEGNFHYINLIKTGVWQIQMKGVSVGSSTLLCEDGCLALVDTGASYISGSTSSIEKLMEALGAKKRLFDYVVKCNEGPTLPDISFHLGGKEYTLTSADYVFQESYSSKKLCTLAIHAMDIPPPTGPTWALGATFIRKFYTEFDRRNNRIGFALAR
Description: Compounds of Formula I were evaluated as inhibitors of human renin in an in vitro assay, as follows: This human renin inhibition test has been previously described in detail [Papaioannou et al., Clinical and Experimental Hypertension, A7(9), 1243-1257 (1985)]. Human renin was obtained from the National Institute for Biological Standards, London. An incubation mixture was prepared containing the following components: in a total volume of 0.25 mL: 100 mM Tris-acetate buffer at pH 7.4, 25×10^-6 Goldblatt units of renin, 0.05 mL of plasma from human volunteers taking oral contraceptives, 6.0 mM Na-EDTA, 2.4 mM phenylmethyl sulfonyl fluoride, 1.5 mM 8-hydroxyquinoline, 0.4 mg/mL bovine serum albumin (BSA), and 0.024 mg/mL neomycin sulfate. This mixture was incubated for two hours at 37° C. in the presence or absence of renin inhibitors. The produced angiotensin I was determined by radioimmunoassay (New England Nuclear kit). Test compounds to be assayed were dissolved in DMSO and diluted with 100 mM Tris-acetate buffer at pH 7.4 containing 0.5% BSA to the appropriate concentration. The final concentration of organic solvent in the reaction mixture was less than 1%. Control incubations at 37° C. were used to correct for effects of organic solvent on renin activity.

renin = conditions: cited from earlier work
pepsin = conditions: cited from earlier work
cathepsin D = conditions: cited from earlier work
hog renin = conditions: nephrectomized rats, after injection of hog renin; cited from earlier work

Structure (SMILES) | pIC50 (human renin) | inhibitor of renin (renin) | inhibitor of pepsin (pepsin) | inhibitor of cathepsin D (cathepsin D) | reduce blood pressure in vivo (hog renin)
CC(C)C[C@H](O)[C@H](O)[C@H](CC1CCCCC1)NC(=O)[C@H](CC1CC1)NC(=O)C(Cc1ccccc1)CS(=O)(=O)C(C)(C)C (stereo partly drawn) [Example 1] | 9.52 |  |  |  | 
CC(C)C[C@H](O)[C@H](O)[C@H](CC1CCCCC1)NC(=O)[C@H](CC1CC1)NC(=O)C(CSC(C)(C)C)Cc1ccccc1 (stereo partly drawn) [Example 2] | 8.57 |  |  |  | 
CC(C)CC(=O)N[C@H](C(=O)N[C@H](C(=O)N[C@@H](CC(C)C)[C@@H](O)CC(=O)N[C@@H](C)C(=O)N[C@@H](CC(C)C)[C@@H](O)CC(=O)O)C(C)C)C(C)C [pepstatin] (Isovaleryl-VV[Sta]A[Sta]-OH) |  | inhibitor | inhibitor | inhibitor | reduce blood pressure in vivo
